According to ChEMBL document CHEMBL5696441 (Nat Chem Biol, 2011):

Tests used:
[1] = biological target: Cyclin-dependent kinase 11A (Homo sapiens) (UniProt Q9UQ88); experiment: Inhibition of CDC2L2 (unknown origin) assessed as remaining activity at 1 uM by Kinome scan method relative to control
[2] = biological target: Ephrin type-A receptor 2 (Homo sapiens) (UniProt P29317); experiment: Inhibition of EPHA2 (unknown origin) assessed as remaining activity at 1 uM by Kinome scan method relative to control
[3] = biological target: Serine/threonine-protein kinase N2 (Homo sapiens) (UniProt Q16513); experiment: Inhibition of PKN2 (unknown origin) assessed as remaining activity at 1 uM by Kinome scan method relative to control
Sequence of Serine/threonine-protein kinase N2 (Homo sapiens) (Q16513 whole entry, looked up): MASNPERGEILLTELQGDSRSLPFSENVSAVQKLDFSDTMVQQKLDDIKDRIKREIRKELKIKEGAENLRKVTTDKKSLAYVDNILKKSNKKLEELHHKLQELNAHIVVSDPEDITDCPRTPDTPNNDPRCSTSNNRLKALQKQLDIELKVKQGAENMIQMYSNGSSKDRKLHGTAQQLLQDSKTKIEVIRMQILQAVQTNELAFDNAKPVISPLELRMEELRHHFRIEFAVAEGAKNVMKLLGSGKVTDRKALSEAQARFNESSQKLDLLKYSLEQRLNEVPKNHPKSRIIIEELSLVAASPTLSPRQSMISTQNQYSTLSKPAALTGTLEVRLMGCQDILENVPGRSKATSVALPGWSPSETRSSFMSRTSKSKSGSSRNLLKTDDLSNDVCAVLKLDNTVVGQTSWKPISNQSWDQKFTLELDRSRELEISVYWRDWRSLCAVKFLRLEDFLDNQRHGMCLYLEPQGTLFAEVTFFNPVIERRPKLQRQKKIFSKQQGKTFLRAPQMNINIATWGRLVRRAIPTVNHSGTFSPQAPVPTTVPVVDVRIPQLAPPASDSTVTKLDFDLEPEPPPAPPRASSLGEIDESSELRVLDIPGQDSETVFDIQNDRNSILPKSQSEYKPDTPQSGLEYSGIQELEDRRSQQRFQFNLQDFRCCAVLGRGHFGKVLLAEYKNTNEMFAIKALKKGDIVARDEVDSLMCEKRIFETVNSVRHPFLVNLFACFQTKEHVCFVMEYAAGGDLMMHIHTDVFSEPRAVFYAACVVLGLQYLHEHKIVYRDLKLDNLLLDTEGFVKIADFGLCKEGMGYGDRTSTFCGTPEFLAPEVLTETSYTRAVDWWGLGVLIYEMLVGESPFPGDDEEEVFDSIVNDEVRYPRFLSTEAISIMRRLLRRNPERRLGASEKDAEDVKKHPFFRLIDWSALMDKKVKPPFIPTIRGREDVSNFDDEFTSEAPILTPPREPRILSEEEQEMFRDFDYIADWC

[4] = biological target: Tyrosine-protein kinase Lyn (Homo sapiens) (UniProt P07948); experiment: Inhibition of LYN (unknown origin) assessed as remaining activity at 1 uM by Kinome scan method relative to control
[5] = biological target: Phosphatidylinositol 4-kinase beta (Homo sapiens) (UniProt Q9UBF8); experiment: Inhibition of PIK4CB (unknown origin) assessed as remaining activity at 1 uM by Kinome scan method relative to control
Sequence of Phosphatidylinositol 4-kinase beta (Homo sapiens) (Q9UBF8 2-816 limits assumed): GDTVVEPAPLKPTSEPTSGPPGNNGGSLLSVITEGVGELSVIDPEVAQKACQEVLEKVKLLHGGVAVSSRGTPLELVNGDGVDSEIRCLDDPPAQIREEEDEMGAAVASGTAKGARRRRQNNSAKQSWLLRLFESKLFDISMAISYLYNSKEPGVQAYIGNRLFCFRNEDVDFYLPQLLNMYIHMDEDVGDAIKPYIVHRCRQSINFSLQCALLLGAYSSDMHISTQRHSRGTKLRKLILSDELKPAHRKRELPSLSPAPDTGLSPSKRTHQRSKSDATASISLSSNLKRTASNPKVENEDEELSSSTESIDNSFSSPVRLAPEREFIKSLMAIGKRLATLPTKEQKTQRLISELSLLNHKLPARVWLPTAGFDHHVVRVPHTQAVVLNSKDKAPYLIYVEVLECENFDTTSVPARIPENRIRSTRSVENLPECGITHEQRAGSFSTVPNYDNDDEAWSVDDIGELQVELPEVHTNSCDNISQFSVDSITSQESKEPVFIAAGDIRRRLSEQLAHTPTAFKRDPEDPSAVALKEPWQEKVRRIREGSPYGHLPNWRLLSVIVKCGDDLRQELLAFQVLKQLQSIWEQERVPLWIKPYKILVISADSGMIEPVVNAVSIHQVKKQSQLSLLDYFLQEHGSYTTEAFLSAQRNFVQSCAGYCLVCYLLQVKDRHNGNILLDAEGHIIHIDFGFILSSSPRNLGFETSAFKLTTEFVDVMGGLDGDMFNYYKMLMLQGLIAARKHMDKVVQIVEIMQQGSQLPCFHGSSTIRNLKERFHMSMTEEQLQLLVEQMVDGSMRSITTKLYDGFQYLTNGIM

[6] = biological target: NT-3 growth factor receptor (Homo sapiens) (UniProt Q16288); experiment: Inhibition of TRKC (unknown origin) assessed as remaining activity at 1 uM by Kinome scan method relative to control
Sequence of NT-3 growth factor receptor (Homo sapiens) (Q16288 32-839 limits assumed): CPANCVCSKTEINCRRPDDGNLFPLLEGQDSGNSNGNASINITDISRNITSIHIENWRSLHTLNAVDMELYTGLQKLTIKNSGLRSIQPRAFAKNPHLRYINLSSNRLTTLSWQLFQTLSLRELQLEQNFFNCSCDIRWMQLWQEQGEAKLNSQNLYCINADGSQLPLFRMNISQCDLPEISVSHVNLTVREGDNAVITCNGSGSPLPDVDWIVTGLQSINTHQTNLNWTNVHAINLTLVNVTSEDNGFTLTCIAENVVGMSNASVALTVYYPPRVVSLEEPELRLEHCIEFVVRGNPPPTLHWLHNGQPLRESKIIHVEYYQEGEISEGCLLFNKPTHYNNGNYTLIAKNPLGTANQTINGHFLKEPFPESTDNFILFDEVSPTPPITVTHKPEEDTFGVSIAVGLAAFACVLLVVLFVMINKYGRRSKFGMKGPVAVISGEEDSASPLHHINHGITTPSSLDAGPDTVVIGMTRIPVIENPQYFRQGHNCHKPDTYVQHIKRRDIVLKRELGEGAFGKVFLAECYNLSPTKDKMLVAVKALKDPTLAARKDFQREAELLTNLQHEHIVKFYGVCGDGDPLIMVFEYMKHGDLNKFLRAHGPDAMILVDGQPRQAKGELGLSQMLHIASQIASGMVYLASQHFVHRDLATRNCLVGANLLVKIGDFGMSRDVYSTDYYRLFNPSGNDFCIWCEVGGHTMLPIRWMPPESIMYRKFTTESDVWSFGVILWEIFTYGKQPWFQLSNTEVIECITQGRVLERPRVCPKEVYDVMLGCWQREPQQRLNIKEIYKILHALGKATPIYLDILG

[7] = biological target: T1, Tyrosine-protein kinase Tec (Homo sapiens) (UniProt P42680); experiment: Inhibition of TEC (unknown origin) assessed as remaining activity at 1 uM by Kinome scan method relative to control
T1 sequence (whole entry): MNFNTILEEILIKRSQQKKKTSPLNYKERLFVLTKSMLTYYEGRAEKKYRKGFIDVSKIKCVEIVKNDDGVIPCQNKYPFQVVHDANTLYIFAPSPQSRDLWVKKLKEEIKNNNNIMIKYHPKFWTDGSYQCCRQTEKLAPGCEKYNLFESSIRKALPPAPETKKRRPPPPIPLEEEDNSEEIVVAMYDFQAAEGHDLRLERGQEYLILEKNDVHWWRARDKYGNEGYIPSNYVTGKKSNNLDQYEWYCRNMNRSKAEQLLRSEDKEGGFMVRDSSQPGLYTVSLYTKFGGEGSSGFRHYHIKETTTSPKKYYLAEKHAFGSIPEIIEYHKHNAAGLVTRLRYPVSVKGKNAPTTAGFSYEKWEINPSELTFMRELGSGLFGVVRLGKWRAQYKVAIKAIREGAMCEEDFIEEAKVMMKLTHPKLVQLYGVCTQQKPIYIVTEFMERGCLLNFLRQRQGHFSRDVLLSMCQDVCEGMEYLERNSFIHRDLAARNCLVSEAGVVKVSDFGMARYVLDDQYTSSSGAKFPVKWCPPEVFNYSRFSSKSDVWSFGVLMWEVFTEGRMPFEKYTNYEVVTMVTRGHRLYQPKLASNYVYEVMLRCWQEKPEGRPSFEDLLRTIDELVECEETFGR

[8] = biological target: Cyclin-dependent kinase 2 (Homo sapiens) (UniProt P24941); experiment: Inhibition of CDK2 (unknown origin) assessed as remaining activity at 1 uM by Kinome scan method relative to control
[9] = system: Phosphatidylinositol 4,5-bisphosphate 3-kinase catalytic subunit alpha isoform (Homo sapiens), P42336 [C420R]; experiment: Inhibition of PIK3CA C420R mutant (unknown origin) assessed as remaining activity at 1 uM by Kinome scan method relative to control
Sequence of Phosphatidylinositol 4,5-bisphosphate 3-kinase catalytic subunit alpha isoform (Homo sapiens), P42336 [C420R] (P42336 whole entry C420R, canonical isoform): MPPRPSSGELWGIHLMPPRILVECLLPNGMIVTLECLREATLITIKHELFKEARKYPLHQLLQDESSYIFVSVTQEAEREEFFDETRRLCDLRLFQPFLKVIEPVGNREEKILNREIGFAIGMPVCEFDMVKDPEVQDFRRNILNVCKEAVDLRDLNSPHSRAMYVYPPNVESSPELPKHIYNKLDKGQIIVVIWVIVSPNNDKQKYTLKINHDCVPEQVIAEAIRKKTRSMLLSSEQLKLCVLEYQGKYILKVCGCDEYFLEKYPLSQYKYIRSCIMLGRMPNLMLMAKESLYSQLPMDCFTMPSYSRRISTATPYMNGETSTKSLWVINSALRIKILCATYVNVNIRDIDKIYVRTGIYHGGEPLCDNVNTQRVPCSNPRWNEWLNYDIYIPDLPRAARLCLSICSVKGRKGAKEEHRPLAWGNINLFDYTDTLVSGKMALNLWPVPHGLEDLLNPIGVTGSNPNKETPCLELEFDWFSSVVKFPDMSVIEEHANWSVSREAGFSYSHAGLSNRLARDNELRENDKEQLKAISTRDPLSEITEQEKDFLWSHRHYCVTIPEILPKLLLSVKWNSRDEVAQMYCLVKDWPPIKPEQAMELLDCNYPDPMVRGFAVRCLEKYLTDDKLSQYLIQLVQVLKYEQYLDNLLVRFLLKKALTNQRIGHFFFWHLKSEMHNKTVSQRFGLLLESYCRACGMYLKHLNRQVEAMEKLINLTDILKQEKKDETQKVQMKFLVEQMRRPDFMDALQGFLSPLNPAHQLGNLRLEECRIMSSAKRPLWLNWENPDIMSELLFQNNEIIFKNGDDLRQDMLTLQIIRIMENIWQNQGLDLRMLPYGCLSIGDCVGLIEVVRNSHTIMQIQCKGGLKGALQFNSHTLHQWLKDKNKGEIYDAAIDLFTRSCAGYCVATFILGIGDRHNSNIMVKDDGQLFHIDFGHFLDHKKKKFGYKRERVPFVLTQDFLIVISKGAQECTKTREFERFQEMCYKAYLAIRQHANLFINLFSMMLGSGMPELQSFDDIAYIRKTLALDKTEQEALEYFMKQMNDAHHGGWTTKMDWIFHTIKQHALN

[10] = biological target: T2, Ephrin type-A receptor 3 (Homo sapiens) (UniProt P29320); experiment: Inhibition of EPHA3 (unknown origin) assessed as remaining activity at 1 uM by Kinome scan method relative to control
T2 sequence (whole entry): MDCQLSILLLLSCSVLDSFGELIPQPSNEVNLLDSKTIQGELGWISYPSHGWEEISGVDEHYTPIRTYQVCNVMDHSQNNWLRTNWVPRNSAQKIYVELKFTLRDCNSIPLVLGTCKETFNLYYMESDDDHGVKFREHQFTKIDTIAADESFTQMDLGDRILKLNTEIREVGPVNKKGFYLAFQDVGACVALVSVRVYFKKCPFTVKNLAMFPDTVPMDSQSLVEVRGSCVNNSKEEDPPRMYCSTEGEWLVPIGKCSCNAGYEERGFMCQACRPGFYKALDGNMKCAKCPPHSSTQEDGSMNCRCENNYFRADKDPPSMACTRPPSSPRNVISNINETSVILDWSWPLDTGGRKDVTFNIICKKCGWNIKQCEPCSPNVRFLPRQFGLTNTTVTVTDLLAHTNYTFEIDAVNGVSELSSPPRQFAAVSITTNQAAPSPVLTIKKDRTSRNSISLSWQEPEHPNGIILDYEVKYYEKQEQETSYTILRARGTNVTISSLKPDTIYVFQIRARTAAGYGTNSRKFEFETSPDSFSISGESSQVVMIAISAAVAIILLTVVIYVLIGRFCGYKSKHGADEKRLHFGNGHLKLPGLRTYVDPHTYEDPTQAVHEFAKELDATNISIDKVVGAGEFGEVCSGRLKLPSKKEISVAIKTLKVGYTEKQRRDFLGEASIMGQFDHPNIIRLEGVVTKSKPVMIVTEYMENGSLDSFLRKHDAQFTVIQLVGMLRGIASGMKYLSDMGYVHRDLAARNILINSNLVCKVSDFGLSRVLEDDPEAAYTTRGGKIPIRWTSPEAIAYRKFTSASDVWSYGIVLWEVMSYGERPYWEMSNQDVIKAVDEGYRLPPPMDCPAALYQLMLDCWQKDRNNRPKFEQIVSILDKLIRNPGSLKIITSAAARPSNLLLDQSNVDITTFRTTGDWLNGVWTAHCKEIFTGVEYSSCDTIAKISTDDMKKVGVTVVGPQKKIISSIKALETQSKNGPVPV

[11] = biological target: Cyclin-dependent kinase 16 (Homo sapiens) (UniProt Q00536); experiment: Inhibition of PCTK1 (unknown origin) assessed as remaining activity at 1 uM by Kinome scan method relative to control
Sequence of Cyclin-dependent kinase 16 (Homo sapiens) (Q00536 whole entry): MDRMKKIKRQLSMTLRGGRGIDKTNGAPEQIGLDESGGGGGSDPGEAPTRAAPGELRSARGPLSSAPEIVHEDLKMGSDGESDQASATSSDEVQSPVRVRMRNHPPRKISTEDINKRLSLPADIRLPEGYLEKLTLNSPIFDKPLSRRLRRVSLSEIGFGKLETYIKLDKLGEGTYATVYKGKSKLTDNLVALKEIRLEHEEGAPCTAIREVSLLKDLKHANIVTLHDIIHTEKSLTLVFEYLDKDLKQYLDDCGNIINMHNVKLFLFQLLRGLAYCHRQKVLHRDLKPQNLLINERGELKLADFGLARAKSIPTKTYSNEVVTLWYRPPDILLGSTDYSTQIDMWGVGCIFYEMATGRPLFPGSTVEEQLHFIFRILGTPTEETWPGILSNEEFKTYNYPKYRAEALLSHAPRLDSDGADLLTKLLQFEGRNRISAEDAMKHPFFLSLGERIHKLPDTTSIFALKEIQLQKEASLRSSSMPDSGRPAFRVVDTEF

[12] = biological target: T3, Serine/threonine-protein kinase NLK (Homo sapiens) (UniProt Q9UBE8); experiment: Inhibition of NLK (unknown origin) assessed as remaining activity at 1 uM by Kinome scan method relative to control
T3 sequence (whole entry): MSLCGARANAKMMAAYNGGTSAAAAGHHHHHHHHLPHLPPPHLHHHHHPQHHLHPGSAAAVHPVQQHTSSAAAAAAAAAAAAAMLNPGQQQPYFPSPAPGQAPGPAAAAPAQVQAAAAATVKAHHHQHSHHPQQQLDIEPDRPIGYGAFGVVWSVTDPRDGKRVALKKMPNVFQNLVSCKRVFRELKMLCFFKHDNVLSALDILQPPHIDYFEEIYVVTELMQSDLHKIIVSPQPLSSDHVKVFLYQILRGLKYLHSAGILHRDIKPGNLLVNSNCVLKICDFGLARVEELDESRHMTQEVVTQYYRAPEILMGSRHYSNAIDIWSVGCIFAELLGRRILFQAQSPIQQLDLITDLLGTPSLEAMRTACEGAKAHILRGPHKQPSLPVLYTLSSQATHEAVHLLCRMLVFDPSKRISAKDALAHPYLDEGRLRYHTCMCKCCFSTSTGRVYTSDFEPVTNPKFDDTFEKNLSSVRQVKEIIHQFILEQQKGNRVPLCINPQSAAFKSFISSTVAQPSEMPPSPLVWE

Sequence of Cyclin-dependent kinase 11A (Homo sapiens) (Q9UQ88 whole entry): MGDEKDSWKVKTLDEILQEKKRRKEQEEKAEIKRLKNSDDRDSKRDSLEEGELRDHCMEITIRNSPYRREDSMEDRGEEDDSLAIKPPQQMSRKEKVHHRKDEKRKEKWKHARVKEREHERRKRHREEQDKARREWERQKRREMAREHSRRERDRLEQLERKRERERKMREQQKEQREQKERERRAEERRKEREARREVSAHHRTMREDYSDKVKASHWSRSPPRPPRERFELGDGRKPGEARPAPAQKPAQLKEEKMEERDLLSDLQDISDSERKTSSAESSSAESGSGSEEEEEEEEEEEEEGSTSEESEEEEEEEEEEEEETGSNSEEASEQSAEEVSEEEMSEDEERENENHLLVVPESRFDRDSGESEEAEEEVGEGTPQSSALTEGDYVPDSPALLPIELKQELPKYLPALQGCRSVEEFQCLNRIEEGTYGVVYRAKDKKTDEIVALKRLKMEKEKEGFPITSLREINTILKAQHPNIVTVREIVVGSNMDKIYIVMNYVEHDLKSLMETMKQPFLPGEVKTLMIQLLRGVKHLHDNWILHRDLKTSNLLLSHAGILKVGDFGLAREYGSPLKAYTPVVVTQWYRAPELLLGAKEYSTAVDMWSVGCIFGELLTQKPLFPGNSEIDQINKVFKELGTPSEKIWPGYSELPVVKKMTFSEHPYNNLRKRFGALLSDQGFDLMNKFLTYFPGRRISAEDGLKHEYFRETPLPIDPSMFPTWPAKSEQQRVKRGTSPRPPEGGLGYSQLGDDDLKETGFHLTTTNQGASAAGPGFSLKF

Q: Which Activity [1] does the source give for `Nc1ccccc1Nc1ccc2c(c1)CCc1ccccc1C2=O` here?
A: The Activity was 92%.

Q: What about the Activity [2] of the same molecule?
A: The Activity was 93%.

Q: And the Activity [3]?
A: Its Activity is 89%.

Q: What about the Activity [4] of the same molecule?
A: The Activity was 99%.

Q: What about the Activity [5] of the same molecule?
A: The Activity was 91%.

Q: What about the Activity [6] of the same molecule?
A: Its Activity is 86%.

Q: What about the Activity [7] of the same molecule?
A: Its Activity is 98%.

Q: What about the Activity [8] of the same molecule?
A: The Activity was 97%.

Q: What about the Activity [9] of the same molecule?
A: Its Activity is 91%.

Q: What about the Activity [10] of the same molecule?
A: Its Activity is 83%.

Q: And the Activity [11]?
A: Its Activity is 98%.

Q: What about the Activity [12] of the same molecule?
A: Its Activity is 87%.

Q: `O=C1c2ccc(Nc3ccc(F)cc3F)cc2CCc2ccc(OC[C@H](O)CO)cc21` [Skepinone-L] was tested. Which Activity [1] did it give?
A: Its Activity is 93%.

Q: And the Activity [2]?
A: The Activity was 92%.

Q: And the Activity [3]?
A: The Activity was 84%.

Q: And the Activity [4]?
A: Its Activity is 93%.

Q: What about the Activity [5] of the same molecule?
A: Its Activity is 95%.

Q: What about the Activity [6] of the same molecule?
A: The Activity was 100%.

Q: What about the Activity [7] of the same molecule?
A: Its Activity is 99%.

Q: And the Activity [8]?
A: Its Activity is 98%.

Q: What about the Activity [9] of the same molecule?
A: The Activity was 100%.

Q: What about the Activity [10] of the same molecule?
A: The Activity was 94%.

Q: What about the Activity [11] of the same molecule?
A: The Activity was 85%.

Q: What about the Activity [12] of the same molecule?
A: The Activity was 96%.
